ChEMBL document CHEMBL1201862, “PubChem BioAssay data set” (2004)
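Cells were grown in 96-well plates and exposed to each compound for 48 hours at five concentrations; endpoints were interpolated linearly between bracketing concentrations, or set to the highest concentration if not reached. GI50: concentration for 50% inhibition of growth.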 Calls of active or inactive are those of the source. No stated cut-off is given here; in the data, active = GI50 up to about 1.1 µM and inactive = higher.

Assays:
Assay in all cases: growth of human tumour cells (NCI), 48 h
OVCAR-4 = system: OVCAR-4
NCI-H460 = system: NCI-H460
SK-MEL-28 = system: SK-MEL-28
SR = system: SR
CAKI-1 = system: CAKI-1
CCRF-CEM = system: CCRF-CEM
SNB-75 = system: SNB-75
SK-MEL-5 = system: SK-MEL-5
UACC-62 = system: UACC-62
SNB-19 = system: SNB-19
A549 = system: A549
SW-620 = system: SW-620
SF-268 = system: SF-268
IGROV-1 = system: IGROV-1
MOLT-4 = system: MOLT-4

Measured: GI50

COc1ccc(C(=O)NCCC2=CCCCC2)cc1
inactive: OVCAR-4 > 100 µM | NCI-H460 > 100 µM | SK-MEL-28 > 100 µM | SR > 100 µM | CAKI-1 > 100 µM | CCRF-CEM > 100 µM | SNB-75 > 100 µM | SK-MEL-5 > 100 µM | UACC-62 > 100 µM | SNB-19 > 100 µM | A549 > 100 µM | SW-620 > 100 µM | SF-268 > 100 µM | IGROV-1 > 100 µM

COC(=O)c1c(C)oc2ccc(OC(C)=O)cc12
inactive: MOLT-4 > 100 µM | OVCAR-4 > 100 µM | NCI-H460 > 100 µM | SK-MEL-28 > 100 µM | SR > 100 µM | CAKI-1 > 100 µM | CCRF-CEM > 100 µM | SNB-75 34.8 µM | SK-MEL-5 > 100 µM | UACC-62 97.7 µM | SNB-19 > 100 µM | A549 > 100 µM | SW-620 > 100 µM | SF-268 90.8 µM | IGROV-1 > 100 µM

[O-][S+]1CSCS1 (centres undefined)
inactive: MOLT-4 > 100 µM | OVCAR-4 > 100 µM | SK-MEL-28 > 100 µM | SR > 100 µM | CAKI-1 > 100 µM | CCRF-CEM > 100 µM | SNB-75 > 100 µM | SK-MEL-5 > 100 µM | UACC-62 > 100 µM | SNB-19 > 100 µM | A549 > 100 µM | SW-620 > 100 µM | SF-268 > 100 µM | IGROV-1 > 100 µM

CC1CC(C)C(=O)C(C(=O)CC2CC(=O)NC2=O)C1 (centres undefined)
inactive: OVCAR-4 > 100 µM | NCI-H460 > 100 µM | SK-MEL-28 > 100 µM | SR > 100 µM | CAKI-1 > 100 µM | CCRF-CEM > 100 µM | SNB-75 > 100 µM | UACC-62 > 100 µM | SNB-19 > 100 µM | A549 > 100 µM | SW-620 > 100 µM | SF-268 > 100 µM | IGROV-1 > 100 µM

O=C(O)/C=C\C(=O)c1ccc(Cl)cc1
inactive: MOLT-4 24.7 µM | OVCAR-4 29.6 µM | NCI-H460 > 100 µM | SK-MEL-28 18.7 µM | SR 24.3 µM | CAKI-1 24.7 µM | CCRF-CEM 20 µM | SNB-75 44 µM | SK-MEL-5 > 83.9 µM | UACC-62 29.9 µM | SNB-19 > 63 µM | A549 > 100 µM | SW-620 24 µM | SF-268 29.4 µM | IGROV-1 > 70.1 µM

CC1(c2ccccc2)CC12C(=O)NC(=O)NC2=O (centres undefined)
inactive: MOLT-4 > 100 µM | OVCAR-4 > 100 µM | NCI-H460 > 10 µM | SK-MEL-28 > 100 µM | SR > 100 µM | CAKI-1 > 100 µM | CCRF-CEM > 100 µM | SK-MEL-5 > 100 µM | UACC-62 > 100 µM | SNB-19 > 100 µM | A549 > 100 µM | SW-620 > 100 µM | SF-268 > 100 µM | IGROV-1 > 100 µM

S=C1OC2C3C4CC5C3C(O1)C1C5C4C21 (centres undefined)
inactive: MOLT-4 > 100 µM | OVCAR-4 > 100 µM | NCI-H460 58.5 µM | SK-MEL-28 > 100 µM | SR > 100 µM | CAKI-1 > 100 µM | CCRF-CEM > 100 µM | SNB-75 > 100 µM | SK-MEL-5 > 100 µM | UACC-62 > 100 µM | SNB-19 > 100 µM | A549 > 100 µM | SW-620 > 100 µM | SF-268 > 100 µM | IGROV-1 > 100 µM

C=C=C(C(=O)OC)[S+]([O-])c1ccc([N+](=O)[O-])cc1[N+](=O)[O-] (centres undefined)
inactive: MOLT-4 20.7 µM | OVCAR-4 35.6 µM | NCI-H460 > 66.7 µM | SK-MEL-28 34.7 µM | SR 14.1 µM | CAKI-1 25.9 µM | CCRF-CEM 12 µM | SNB-75 29 µM | SK-MEL-5 36.2 µM | UACC-62 28.2 µM | SNB-19 56 µM | A549 52.7 µM | SW-620 14.5 µM | SF-268 39 µM | IGROV-1 > 69.8 µM

O=C(c1nc2ccc(Cl)cc2[nH]c1=O)C(O)c1ccco1 (centres undefined)
inactive: MOLT-4 8.57 µM | OVCAR-4 > 100 µM | NCI-H460 57.9 µM | SK-MEL-28 > 100 µM | CAKI-1 53 µM | CCRF-CEM 1.37 µM | SNB-75 > 100 µM | SK-MEL-5 25.5 µM | UACC-62 40.4 µM | SNB-19 > 100 µM | A549 50 µM | SW-620 > 100 µM | SF-268 98.9 µM | IGROV-1 45.9 µM

COc1ccc(N(C)Sc2ccccc2)cc1
inactive: MOLT-4 13.1 µM | NCI-H460 74.5 µM | SK-MEL-28 55.2 µM | SR 43.7 µM | CCRF-CEM 6.38 µM | SK-MEL-5 47.4 µM | UACC-62 34.7 µM | SNB-19 51.1 µM | A549 39.4 µM | SW-620 43.7 µM | SF-268 27.4 µM | IGROV-1 19.9 µM

C#Cc1cccc(N2C(=O)CC(=P(c3ccccc3)(c3ccccc3)c3ccccc3)C2=O)c1
inactive: MOLT-4 51.8 µM | OVCAR-4 69.2 µM | NCI-H460 97.5 µM | SK-MEL-28 81.3 µM | SR 39.4 µM | CAKI-1 > 100 µM | CCRF-CEM 50.1 µM | SNB-75 91.8 µM | SK-MEL-5 25.6 µM | UACC-62 29.3 µM | SNB-19 69 µM | A549 70 µM | SW-620 54.6 µM | SF-268 62.1 µM

Cc1cc([N+](=O)[O-])c(S(=O)(=O)c2ccccc2)c([N+](=O)[O-])c1
inactive: MOLT-4 3.39 µM | OVCAR-4 7.83 µM | NCI-H460 13.4 µM | SK-MEL-28 18.9 µM | SR 4.59 µM | CAKI-1 3.62 µM | CCRF-CEM 3.52 µM | SNB-75 22.5 µM | SK-MEL-5 14.2 µM | UACC-62 7.69 µM | SNB-19 18.5 µM | A549 23.6 µM | SW-620 3.95 µM | SF-268 13.2 µM | IGROV-1 12.6 µM

O=C(Nc1ccc(Br)cc1)C(=O)C(C(=O)c1ccccc1F)C1OC(=O)c2ccccc21 (centres undefined)
inactive: MOLT-4 25.3 µM | OVCAR-4 24.7 µM | NCI-H460 31.8 µM | SK-MEL-28 18.7 µM | CAKI-1 37.8 µM | CCRF-CEM 18.6 µM | SNB-75 19.7 µM | SK-MEL-5 27.2 µM | UACC-62 14 µM | SNB-19 20.3 µM | A549 39.7 µM | SW-620 31.9 µM | SF-268 24.9 µM | IGROV-1 31.4 µM

CCn1cnc2c(=S)nc(N)[nH]c21
inactive: MOLT-4 > 100 µM | NCI-H460 > 100 µM | SK-MEL-28 > 100 µM | SR > 100 µM | CCRF-CEM > 100 µM | SNB-75 > 100 µM | UACC-62 > 100 µM | SNB-19 > 100 µM | A549 > 100 µM | SW-620 > 100 µM | SF-268 > 100 µM | IGROV-1 > 100 µM

COc1ccc(O)c(C(=O)CCC(=O)O)c1
inactive: MOLT-4 > 100 µM | OVCAR-4 > 100 µM | NCI-H460 > 100 µM | SK-MEL-28 > 100 µM | SR > 100 µM | CCRF-CEM > 100 µM | SNB-75 > 100 µM | SK-MEL-5 > 100 µM | UACC-62 > 100 µM | SNB-19 > 100 µM | A549 > 100 µM | SW-620 > 100 µM | SF-268 > 100 µM | IGROV-1 > 100 µM

CCn1c(CSc2nc(-c3ccccc3)c(-c3ccccc3)[nH]2)n[nH]c1=S
inactive: MOLT-4 > 100 µM | OVCAR-4 > 100 µM | NCI-H460 > 100 µM | SK-MEL-28 > 100 µM | SR > 100 µM | CCRF-CEM > 100 µM | SNB-75 > 100 µM | SK-MEL-5 > 100 µM | SNB-19 > 100 µM | A549 > 100 µM | SF-268 > 100 µM | IGROV-1 > 100 µM

COc1cc(Br)c(/C=N/N=C(\N)NO)cc1OC
inactive: MOLT-4 57.1 µM | OVCAR-4 54.5 µM | NCI-H460 5.22 µM | SK-MEL-28 17.5 µM | SR 11.8 µM | CAKI-1 14.7 µM | CCRF-CEM 30.1 µM | SNB-75 21.3 µM | SK-MEL-5 6.78 µM | UACC-62 11.1 µM | SNB-19 46.3 µM | A549 10.4 µM | SW-620 35.1 µM | SF-268 8.87 µM | IGROV-1 30.4 µM

CC12N=NN(c3ccc([N+](=O)[O-])cc3)C1(O)c1ccccc1C2=O (centres undefined)
inactive: NCI-H460 > 100 µM | SR > 100 µM | SK-MEL-5 > 100 µM | UACC-62 > 100 µM | SNB-19 > 100 µM | A549 > 100 µM | SW-620 > 100 µM | SF-268 > 100 µM | IGROV-1 > 100 µM

N#Cc1c(-c2ccco2)cc(-c2ccc(N)cc2)[nH]c1=O
inactive: MOLT-4 > 100 µM | OVCAR-4 > 100 µM | NCI-H460 > 100 µM | SK-MEL-28 > 100 µM | SR > 100 µM | CCRF-CEM > 100 µM | SNB-75 > 100 µM | SK-MEL-5 > 100 µM | UACC-62 > 100 µM | SNB-19 > 100 µM | A549 > 100 µM | SW-620 > 100 µM | SF-268 > 100 µM | IGROV-1 > 100 µM

CN(C)CCNC(=O)c1cccc2c1nc(-c1ccccn1)c1ccccc12
inactive: MOLT-4 3.87 µM | OVCAR-4 17.3 µM | NCI-H460 7.26 µM | SK-MEL-28 15.6 µM | CAKI-1 18.1 µM | CCRF-CEM 13.5 µM | SNB-75 21.3 µM | SK-MEL-5 15.2 µM | UACC-62 17.1 µM | SNB-19 30.7 µM | A549 11.8 µM | SW-620 11.2 µM | SF-268 23.3 µM | IGROV-1 16.1 µM
